Results: patent US6642250B2, “1,8-naphthyridin-2(1H)-one derivatives” (Grelan Pharmaceutical Co., Ltd., priority 1999, dated 2003)
Read-outs that look alike come from different tables or passages of the source.

Tested on: LPS-induced TNFα production in mouse peritoneal macrophages
Experiment: Inhibition of TNF-α production in LPS-stimulated macrophages
Assay type: cell-based
Settings: Peritoneal macrophage, LPS 0.1 μg/ml, 4 hours
Method: In order to measure inhibitory activity on LPS-induced TNFα production in mouse peritoneal macrophages according to Eur. J. Pharmacol., 230, 9-14 (1993), the following assay was employed. 1) Preparation of Mouse Peritoneal Macrophages Ten percent proteose peptone (2 ml/animal) was administered intraperitoneally to male C3H/HeN mice (6- to 8-week-old) for inducing peritoneal macrophages. Four days after the proteose peptone administration, mice were sacrificed by the dislocation of cervical vertebrate, bled with cutting of their carotid artery, douched intraperitoneally with ice-cooled RPMI 1640 (6 ml), massaged, and lavage fluids wherein peritoneal exudate cells suspended were harvested. The resulting cell suspension was centrifuged at 200×g, and obtained cell pellets were treated with a Tris-ammonium buffer for 1 minute to hemolyze erythrocyte contaminants. The resulting cells were washed twice with 10% FBS/RPMI 1640, resuspended, and seeded on 96-well plates (Sumitomo Bakelite, Japan) at 5×10^5 cells/0.2 ml/well. After pre-incubation for 2 hours in an atmosphere of 5% CO2/95% air, each well was rinsed 3 times with PBS(−) to remove non-adhesive cells. 2) Cell Treatment Each test compound was dissolved in DMSO, and then in 10% FBS/RPMI 1640 to make the final DMSO concentration 0.1%. The resultant test compound solution was used herein. After pre-incubation for 0.5 hr in the above test compound solution, an aliquot of macrophages prepared in the above (1) was admixed with LPS (E. coli serotype 0127: B8; Sigma) to adjust the final LPS concentration to 0.1 μg/ml. Four hours later, culture supernatants were harvested and stored at −80° C. Amounts of TNFα in the culture supernatants were measured with a mouse TNFα ELISA kit (Quantikine/trade name; R & D Systems) according to manuals attached to the kit. For control groups, an aliquot of macrophages prepared in the above (1) was admixed with LPS to adjust the final LPS concentration to 0.1 μg/ml and then treated in the same manner as aforementioned. The resultant samples were used in obtaining the concentration of each test compound required for 50% inhibition (IC50) to each control group.

[1] = read-out: IC50 for inhibition of TNF-α production
[2] = read-out: IC50 for inhibition of TNF-α production (molar)

SMILES	IC50 [1] [µg/mL]	IC50 [2] [nM]
O=c1c(CCCc2ccncc2)cc2cccnc2n1-c1cccc([N+](=O)[O-])c1 [Example No. 8, 1-(3-Nitrophenyl)-3-[3-(pyridin-4-yl)propyl]-1,8-naphthyridin-2(1H)-one]	0.34	~880
COc1ccc(C2CNC(=O)C2)cc1OC1CCCC1 (single isomer, unassigned) [Rolipram, rolipram, reference compound]	0.37	~1300
